{"source": "patent US8242275B2", "about": "“Bicyclic pyrazole compounds as antibacterial agents” (Janssen Pharmaceutica NV, priority 2005, dated 2012)", "assay_type_in_all_cases": "cell-based", "key": {"[1]": {"test_system": "E. coli ATCC25922", "assay": "In vitro antibacterial activity (MIC assay), broth microdilution", "details": "Escherichia coli", "in_short": "(§1)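 Broth microdilution per NCCLS M7-A5: 11-point 2-fold compound dilutions from DMSO stocks, inoculum about 5×10^5 CFU/mL, incubation 35° C for 16–24 h. MIC scored visually against no-compound growth controls, in μg/mL.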"}, "[2]": {"test_system": "S. aureus ATCC13709", "assay": "In vitro antibacterial activity (MIC assay), broth microdilution", "in_short": "as §1"}, "[3]": {"test_system": "S. pneumoniae ATCC49619", "assay": "In vitro antibacterial activity (MIC assay), broth microdilution", "in_short": "as §1"}, "[4]": {"test_system": "CipR MRSA OC4222", "assay": "Resistant strains assay (broth microdilution MIC)", "details": "Staphylococcus aureus, read-out: MIC, Column G", "excerpt": "Testing protocols followed NCCLS methodology for broth microdilution assays."}, "[5]": {"details": "obtained with E. coli ATCC25922, read-out: E. coli MIC, data marked (*)"}, "[6]": {"details": "Staphylococcus aureus, ATCC13709; read-out: S. aureus ATCC13709 MIC"}, "[7]": {"details": "Streptococcus pneumoniae, ATCC49619; read-out: S. pneumoniae ATCC49619 MIC"}}, "note": "Where a name gives a salt, the structure may show the parent alone. Read-outs that look alike come from different tables or passages of the source."}
{"smiles": "CCOC(=O)c1cc2c(cc1C(=O)NC1CCc3nn(-c4ccnc5ccc(OC)cc45)cc3C1)NC(=O)CS2", "note": "(stereo not drawn) [Example 135, 6-[2-(6-Methoxy-quinolin-4-yl)-4,5,6,7-tetrahydro-2H-indazol-5-ylcarbamoyl]-3-oxo-3,4-dihydro-2H-benzo[1,4]thiazine-7-carboxylic acid ethyl ester]", "values": [{"measurement": "MIC", "setting": "[1]; [5]", "result": "> 16", "unit": "µg/mL"}, {"measurement": "MIC", "setting": "[2]; [6]", "result": 2, "unit": "µg/mL"}, {"measurement": "MIC", "setting": "[3]; [7]", "result": "> 16", "unit": "µg/mL"}, {"measurement": "MIC", "setting": "[4]; CipR MRSA OC4222", "result": 2, "unit": "µg/mL"}]}
{"smiles": "COc1ccc2nccc(-n3cc4c(n3)CCC(NC(=O)c3cc5c(cc3C)SCC(=O)N5)C4)c2n1", "note": "(stereo not drawn) [Example 133, 7-Methyl-3-oxo-3,4-dihydro-2H-benzo[1,4]thiazine-6-carboxylic acid [2-(6-methoxy-[1,5]naphthyridin-4-yl)-4,5,6,7-tetrahydro-2H-indazol-5-yl]-amide]", "values": [{"measurement": "MIC", "setting": "[1]; [5]", "result": "> 16", "unit": "µg/mL"}, {"measurement": "MIC", "setting": "[2]; [6]", "result": 0.25, "unit": "µg/mL"}, {"measurement": "MIC", "setting": "[3]; [7]", "result": "> 16", "unit": "µg/mL"}, {"measurement": "MIC", "setting": "[4]; CipR MRSA OC4222", "result": 0.25, "unit": "µg/mL"}]}
{"smiles": "COc1ccc2nccc(-n3cc4c(n3)CCC(NC(=O)c3cc5c(cc3C(=O)O)SCC(=O)N5)C4)c2c1", "note": "(stereo not drawn) [Example 136, 6-[2-(6-Methoxy-quinolin-4-yl)-4,5,6,7-tetrahydro-2H-indazol-5-ylcarbamoyl]-3-oxo-3,4-dihydro-2H-benzo[1,4]thiazine-7-carboxylic acid, potassium salt]", "values": [{"measurement": "MIC", "setting": "[1]; ATCC25922, read-out: E. coli MIC, data marked (*)", "result": "> 16", "unit": "µg/mL"}, {"measurement": "MIC", "setting": "[2]; Staphylococcus aureus, ATCC13709, read-out: S. aureus ATCC13709 MIC", "result": 1, "unit": "µg/mL"}, {"measurement": "MIC", "setting": "[3]; Streptococcus pneumoniae, ATCC49619, read-out: S. pneumoniae ATCC49619 MIC", "result": "> 16", "unit": "µg/mL"}, {"measurement": "MIC", "setting": "[4]; MRSA", "result": 2, "unit": "µg/mL"}]}
{"smiles": "COc1ccc2nccc(-n3cc4c(n3)CCC(NC(=O)c3cc5c(cc3OC)SCC(=O)N5)C4)c2n1", "note": "(stereo not drawn) [Example 130, 7-Methoxy-3-oxo-3,4-dihydro-2H-benzo[1,4]thiazine-6-carboxylic acid [2-(6-methoxy-[1,5]naphthyridin-4-yl)-4,5,6,7-tetrahydro-2H-indazol-5-yl]-amide]", "values": [{"measurement": "MIC", "setting": "[1]; [5]", "result": "> 16", "unit": "µg/mL"}, {"measurement": "MIC", "setting": "[2]; [6]", "result": 2, "unit": "µg/mL"}, {"measurement": "MIC", "setting": "[3]; [7]", "result": 16, "unit": "µg/mL"}, {"measurement": "MIC", "setting": "[4]; CipR MRSA OC4222", "result": 2, "unit": "µg/mL"}]}
{"smiles": "CCOC(=O)c1cc2c(cc1C(=O)NC1CCc3nn(-c4ccnc5ccc(OC)nc45)cc3C1)NC(=O)CS2", "note": "(stereo not drawn) [Example 137, 6-[2-(6-Methoxy-[1,5]naphthyridin-4-yl)-4,5,6,7-tetrahydro-2H-indazol-5-ylcarbamoyl]-3-oxo-3,4-dihydro-2H-benzo[1,4]thiazine-7-carboxylic acid ethyl ester]", "values": [{"measurement": "MIC", "setting": "[1]; [5]", "result": "> 16", "unit": "µg/mL"}, {"measurement": "MIC", "setting": "[2]; [6]", "result": 0.5, "unit": "µg/mL"}, {"measurement": "MIC", "setting": "[3]; [7]", "result": "> 16", "unit": "µg/mL"}, {"measurement": "MIC", "setting": "[4]; CipR MRSA OC4222", "result": 0.5, "unit": "µg/mL"}]}
{"smiles": "COc1ccc2nccc(-n3cc4c(n3)CCC(NCCOc3cc(F)cc(F)c3)C4)c2n1", "note": "(stereo not drawn) [Example 134, [2-(3,5-Difluoro-phenoxy)-ethyl]-[2-(6-methoxy-[1,5]naphthyridin-4-yl)-4,5,6,7-tetrahydro-2H-indazol-5-yl]-amine]", "values": [{"measurement": "MIC", "setting": "[1]; [5]", "result": "> 16", "unit": "µg/mL"}, {"measurement": "MIC", "setting": "[2]; [6]", "result": 1, "unit": "µg/mL"}, {"measurement": "MIC", "setting": "[3]; [7]", "result": 4, "unit": "µg/mL"}, {"measurement": "MIC", "setting": "[4]; CipR MRSA OC4222", "result": 0.5, "unit": "µg/mL"}]}
{"smiles": "COc1ccc2nccc(-n3cc4c(n3)CCC(NC(=O)c3cc5c(cc3C(=O)O)SCC(=O)N5)C4)c2n1", "note": "(stereo not drawn) [Example 138, 6-[2-(6-Methoxy-[1,5]naphthyridin-4-yl)-4,5,6,7-tetrahydro-2H-indazol-5-ylcarbamoyl]-3-oxo-3,4-dihydro-2H-benzo[1,4]thiazine-7-carboxylic acid]", "values": [{"measurement": "MIC", "setting": "[1]; [5]", "result": "> 16", "unit": "µg/mL"}, {"measurement": "MIC", "setting": "[2]; [6]", "result": 0.5, "unit": "µg/mL"}, {"measurement": "MIC", "setting": "[3]; [7]", "result": 16, "unit": "µg/mL"}, {"measurement": "MIC", "setting": "[4]; CipR MRSA OC4222", "result": 0.5, "unit": "µg/mL"}]}
{"smiles": "COc1ccc2nccc(-n3ncc4c3CCC(NC(=O)c3cc5c(cc3C)SCC(=O)N5)C4)c2c1", "note": "(stereo not drawn) [Example 132, 7-Methyl-3-oxo-3,4-dihydro-2H-benzo[1,4]thiazine-6-carboxylic acid [1-(6-methoxy-quinolin-4-yl)-4,5,6,7-tetrahydro-1H-indazol-5-yl]-amide]", "values": [{"measurement": "MIC", "setting": "[1]; [5]", "result": "> 16", "unit": "µg/mL"}, {"measurement": "MIC", "setting": "[2]; [6]", "result": 2, "unit": "µg/mL"}, {"measurement": "MIC", "setting": "[3]; [7]", "result": "> 16", "unit": "µg/mL"}, {"measurement": "MIC", "setting": "[4]; CipR MRSA OC4222", "result": 2, "unit": "µg/mL"}]}
{"smiles": "COc1ccc2nccc(-n3cc4c(n3)CCC(NC(=O)c3ccc5c(c3)NC(=O)C(C)(C)S5)C4)c2c1", "note": "(stereo not drawn) [Example 129, 2,2-Dimethyl-3-oxo-3,4-dihydro-2H-benzo[1,4]thiazine-6-carboxylic acid [2-(6-methoxy-quinolin-4-yl)-4,5,6,7-tetrahydro-2H-indazol-5-yl]-amide]", "values": [{"measurement": "MIC", "setting": "[1]; [5]", "result": "> 16", "unit": "µg/mL"}, {"measurement": "MIC", "setting": "[2]; [6]", "result": 1, "unit": "µg/mL"}, {"measurement": "MIC", "setting": "[3]; [7]", "result": 4, "unit": "µg/mL"}, {"measurement": "MIC", "setting": "[4]; CipR MRSA OC4222", "result": 1, "unit": "µg/mL"}]}
